Assay results as given in ChEMBL document CHEMBL1128910, “Time-dependent inactivation of steroid C17(20) lyase by 17-cyclopropyl ether-substituted steroids” (Bioorg Med Chem Lett, 1996).

Assays:
[1] = biological target: T1, Steroid 17-alpha-hydroxylase/17,20 lyase (Homo sapiens, UniProt P05093); assay: Inhibition of cynomolgus monkey Cytochrome P450 steroid 17-alpha-hydroxylase/17,20 lyase at 0.1 uM pre-incubation time of 40 minutes
T1 sequence (P05093 whole entry): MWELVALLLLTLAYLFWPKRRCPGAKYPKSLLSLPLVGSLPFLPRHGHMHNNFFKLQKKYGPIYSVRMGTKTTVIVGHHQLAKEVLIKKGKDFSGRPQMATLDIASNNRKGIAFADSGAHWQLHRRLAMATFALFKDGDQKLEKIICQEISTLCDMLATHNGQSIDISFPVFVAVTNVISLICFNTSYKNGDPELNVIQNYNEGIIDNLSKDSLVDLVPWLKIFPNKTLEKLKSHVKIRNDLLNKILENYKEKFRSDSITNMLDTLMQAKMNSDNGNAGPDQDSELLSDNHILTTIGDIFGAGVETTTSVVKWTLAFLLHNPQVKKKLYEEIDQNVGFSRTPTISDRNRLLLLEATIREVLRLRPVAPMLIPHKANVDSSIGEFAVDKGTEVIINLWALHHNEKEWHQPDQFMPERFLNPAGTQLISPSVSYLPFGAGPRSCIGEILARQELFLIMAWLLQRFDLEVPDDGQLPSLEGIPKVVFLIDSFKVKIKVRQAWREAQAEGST

[2] = biological target: T1, Steroid 17-alpha-hydroxylase/17,20 lyase; assay: Inhibition of cynomolgus monkey Cytochrome P450 steroid 17-alpha-hydroxylase/17,20 lyase at 1 uM
[3] = biological target: T1, Steroid 17-alpha-hydroxylase/17,20 lyase; assay: Inhibition of cynomolgus monkey Cytochrome P450 steroid 17-alpha-hydroxylase/17,20 lyase at 1 uM preincubation time 40 minutes
[4] = biological target: T1, Steroid 17-alpha-hydroxylase/17,20 lyase; assay: Inhibition of cynomolgus monkey Cytochrome P450 steroid 17-alpha-hydroxylase/17,20 lyase at 0.1 uM
[5] = biological target: T1, Steroid 17-alpha-hydroxylase/17,20 lyase; assay: Inhibition of human Cytochrome P450 steroid 17-alpha-hydroxylase/17,20 lyase at 0.8 uM
[6] = biological target: T1, Steroid 17-alpha-hydroxylase/17,20 lyase; assay: Inhibition of human Cytochrome P450 steroid 17-alpha-hydroxylase/17,20 lyase at 0.8 uM pre-incubation time 30 minutes

Compound | inhibition at 0.1 µM [1] | inhibition at 1 µM [2] | inhibition at 1 µM [3] | inhibition at 0.1 µM [4] | inhibition at 0.8 µM [5] | inhibition at 0.8 µM [6]
C[C@]12CCC(=O)C=C1C(=O)CC1C2CC[C@@]2(C)C1CC[C@@H]2OC1CC1 (stereo partly specified) | 51% | 52% | 79% | 17% |  | 
C[C@]12CCC(=O)C=C1CCC1C2CC[C@@]2(C)C1CC[C@@H]2OC1CC1 (stereo partly specified) | 55% | 73% | 90% | 26% |  | 
C[C@]12CCC3C(CC=C4C[C@@H](O)[C@H]5COC[C@]43C5)C1CC[C@@H]2OC1CC1 (stereo partly specified) |  |  |  |  | 0% | 0%
C[C@]12CCC3C(CCC4=CC(=O)[C@H]5COC[C@]43C5)C1CC[C@@H]2OC1CC1 (stereo partly specified) |  |  |  |  | 1% | 17%
CC1(C)C2=CCC3C(CC[C@@]4(C)C3CC[C@@H]4OC3CC3)[C@@]2(C)CC[C@@H]1O (stereo partly specified) |  |  |  |  | 0% | 0%
C[C@]12CC[C@H](O)CC1=CCC1C2CC[C@@]2(C)C1CC[C@@H]2OC1CC1 (stereo partly specified) |  |  |  |  | 11% | 64%
